Laboratory results reported in the NIST ThermoML archive (doi:10.1016/j.jct.2010.04.003).
± gives the expanded uncertainty stated by the source.

Test: xn = mol fraction of the nth substance listed
Settings: 101 kPa, Liquid, Buoyancy - hydrostatic balance with magnetic suspension - one sinker

CN(C)P(=O)(N(C)C)N(C)C [tris(dimethylamino)phosphine oxide] + O
mass density [kg/m3]
Settings	288.15 K	293.15 K	298.15 K	303.15 K	308.15 K
x1 = 0.0023	1001.1 ± 0.22	1000.05 ± 0.21	998.77 ± 0.2	997.25 ± 0.19	995.51 ± 0.18
x1 = 0.00503	1003.51 ± 0.21	1002.29 ± 0.2	1000.85 ± 0.19	999.27 ± 0.19	997.34 ± 0.19
x1 = 0.0101	1007.82 ± 0.21	1006.2 ± 0.2	1004.52 ± 0.19	1002.76 ± 0.19	1000.79 ± 0.18
x1 = 0.0297	1024.31 ± 0.19	1021.59 ± 0.19	1018.84 ± 0.18	1016.02 ± 0.18	1013.39 ± 0.17
x1 = 0.05	1036.43 ± 0.17	1033.08 ± 0.16	1029.72 ± 0.16	1026.56 ± 0.16	1023.13 ± 0.16
x1 = 0.07	1043.92 ± 0.15	1040.44 ± 0.15	1036.96 ± 0.15	1033.47 ± 0.15	1029.7 ± 0.14
x1 = 0.1	1050.24 ± 0.14	1046.86 ± 0.14	1042.73 ± 0.14	1039 ± 0.14	1034.91 ± 0.14
x1 = 0.1496	1054.84 ± 0.15	1050.62 ± 0.15	1046.2 ± 0.15	1041.95 ± 0.15	1037.57 ± 0.15
x1 = 0.1999	1054.7 ± 0.15	1050.33 ± 0.15	1045.83 ± 0.15	1041.49 ± 0.15	1037.05 ± 0.15
x1 = 0.3008	1049.56 ± 0.17	1045 ± 0.17	1040.47 ± 0.17	1036.04 ± 0.16	1031.66 ± 0.16
x1 = 0.3999	1044.61 ± 0.18	1040.34 ± 0.18	1035.76 ± 0.18	1031.36 ± 0.18	1026.94 ± 0.18
x1 = 0.5002	1040.86 ± 0.2	1036.54 ± 0.2	1032.12 ± 0.2	1027.81 ± 0.2	1023.35 ± 0.2
x1 = 0.6	1038.03 ± 0.22	1033.74 ± 0.22	1029.39 ± 0.22	1025.15 ± 0.22	1020.66 ± 0.22
x1 = 0.6997	1035.45 ± 0.25	1031.15 ± 0.24	1026.79 ± 0.24	1022.51 ± 0.24	1018 ± 0.24
x1 = 0.8004	1033.06 ± 0.27	1028.72 ± 0.27	1024.37 ± 0.27	1020.03 ± 0.27	1015.57 ± 0.26
x1 = 0.8505	1031.95 ± 0.29	1027.66 ± 0.28	1023.31 ± 0.28	1019.05 ± 0.28	1014.64 ± 0.28
x1 = 0.91	1030.54 ± 0.3	1026.29 ± 0.3	1021.95 ± 0.3	1017.74 ± 0.3	1013.41 ± 0.3
x1 = 0.9499	1029.63 ± 0.32	1025.4 ± 0.31	1021.07 ± 0.31	1016.88 ± 0.31	1012.59 ± 0.31
x1 = 0.9703	1029.16 ± 0.32	1024.92 ± 0.32	1020.61 ± 0.32	1016.44 ± 0.32	1012.14 ± 0.31
x1 = 0.9849	1028.81 ± 0.33	1024.6 ± 0.32	1020.3 ± 0.32	1016.12 ± 0.32	1011.86 ± 0.32
x1 = 0.9937	1028.61 ± 0.33	1024.4 ± 0.33	1020.1 ± 0.32	1015.93 ± 0.32	1011.68 ± 0.32
x1 = 0.9967	1028.54 ± 0.33	1024.33 ± 0.33	1020.03 ± 0.33	1015.86 ± 0.32	1011.61 ± 0.32
x1 = 1	1028.47 ± 0.33	1024.26 ± 0.33	1019.96 ± 0.33	1015.79 ± 0.32	1011.54 ± 0.32
